According to paper PMC13070491, “Single-nucleus transcriptomics, pharmacokinetics, and pharmacodynamics of CDK4/6 and mTOR inhibition in a Phase 0/1 trial of recurrent high-grade glioma” (Neuro-Oncology, 2025):
Values joined by “and” are separate entries in the source; they are usually repeats but may differ in a detail not shown here. Equal entries are not always repeated.

Test: CNS penetration: total and unbound drug concentrations in tumor regions, CSF and plasma (LC-MS/MS, equilibrium dialysis);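 note: drug levels in patient tumor tissue from contrast-enhancing and non-enhancing regions sampled under MRI-guided neuronavigation, with plasma and CSF drawn during surgical resection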
Conditions: for Ribociclib.CSF / Ribociclib.Non-enhancing.tumor / Ribociclib.Plasma.conc / Ribociclib.Unbound.CSF / Ribociclib.Unbound.enhancing: per patient; for Kp at 120 h / Kp uu at 120 h / concentration at 5 days: human
[1] = Level 0: Ribociclib 400mg QD + Everolimus 2.5mg QD, sampling 1-3 Hours
[2] = Level 0: Ribociclib 400mg QD + Everolimus 2.5mg QD, sampling 23-25 Hours
[3] = Level 1: Ribociclib 600mg QD + Everolimus 2.5mg QD, sampling 1-3 Hours
[4] = Level 1: Ribociclib 600mg QD + Everolimus 2.5mg QD, sampling 7-9 Hours
[5] = Level 2: Ribociclib 600mg QD + Everolimus 5mg QD, sampling 7-9 Hours
[6] = Level 3: Ribociclib 600mg QD + Everolimus 10mg QD, sampling 7-9 Hours
[7] = Level 4: Ribociclib 600mg QD + Everolimus 50mg once on Day 5, sampling 7-9 Hours
[8] = Level 5: Ribociclib 600mg QD + Everolimus 60mg once on Day 5, sampling 7-9 Hours
[9] = Level 6: Ribociclib 600mg QD + Everolimus 70mg once on Day 5, sampling 7-9 Hours
[10] = enhancing tumor / plasma, oral, 400 mg
[11] = enhancing tumor / plasma, oral, 600 mg
[12] = non-enhancing tumor / plasma, oral, 400 mg
[13] = non-enhancing tumor / plasma, oral, 600 mg

- Total Ribociclib concentration, CSF, Minimum (400 mg QD 5 days): 36 nM
- Total Ribociclib concentration, CSF, Maximum (600 mg QD 5 days): 714 nM
- Total Ribociclib concentration, CSF, Median (600 mg QD 5 days): 276 nM
- Total Ribociclib concentration, CSF, Minimum (600 mg QD 5 days): 54 nM
- Ribociclib.CSF [1]: 0.0707
- Ribociclib.Non-enhancing.tumor [1]: 6.684
- Ribociclib.Plasma.conc [1]: 2.09 and 0.31
- Ribociclib.Unbound.CSF [1]: 0.2008 and 0.0206
- Ribociclib.Unbound.enhancing [1]: 1.4 and 0.419
- Ribociclib.CSF [2]: 0.1931
- Ribociclib.Non-enhancing.tumor [2]: 3.834
- Ribociclib.Plasma.conc [2]: 0.402 and 0.1417
- Ribociclib.Unbound.CSF [2]: 0.0928
- Ribociclib.Unbound.enhancing [2]: 0.92 and 0.1576
- Ribociclib.CSF [3]: 0.0543
- Ribociclib.Non-enhancing.tumor [3]: 7.2608
- Ribociclib.Plasma.conc [3]: 0.1944
- Ribociclib.Unbound.CSF [3]: 0.0207
- Ribociclib.Unbound.enhancing [3]: 0.4205
- Ribociclib.CSF [4]: 0.4701 and 0.7139
- Ribociclib.Non-enhancing.tumor [4]: 30.0728 and 22.3048
- Ribociclib.Plasma.conc [4]: 3.4168 and 1.3485
- Ribociclib.Unbound.CSF [4]: 0.2858 and 0.3152
- Ribociclib.Unbound.enhancing [4]: 4.5 and 3.49
- Ribociclib.CSF [5]: 0.1529 and 0.1758
- Ribociclib.Non-enhancing.tumor [5]: 8.1928 and 11.9076 and 16.496
- Ribociclib.Plasma.conc [5]: 1.151 and 0.8853 and 1.3745
- Ribociclib.Unbound.CSF [5]: 0.1531 and 0.1613
- Ribociclib.Unbound.enhancing [5]: 1.0167 and 1.1852 and 2.1093
- Ribociclib.CSF [6]: 0.2760 and 0.5558 and 0.3667
- Ribociclib.Non-enhancing.tumor [6]: 19.9804 and 11.7316 and 41.6376
- Ribociclib.Plasma.conc [6]: 1.0816 and 1.6009
- Ribociclib.Unbound.CSF [6]: 0.3027
- Ribociclib.Unbound.enhancing [6]: 1.1229 and 3.39 and 0.0047
- Ribociclib.CSF [7]: 0.1707 and 0.4561
- Ribociclib.Non-enhancing.tumor [7]: 4.2684 and 4.8112
- Ribociclib.Plasma.conc [7]: 0.7506 and 1.3586 and 0.9058
- Ribociclib.Unbound.CSF [7]: 0.1543 and 0.2120 and 0.3373
- Ribociclib.Unbound.enhancing [7]: 0.6494 and 0.9352 and 3.453
- Ribociclib.CSF [8]: 0.0807 and 0.3122 and 0.4398
- Ribociclib.Non-enhancing.tumor [8]: 12.238 and 4.126
- Ribociclib.Plasma.conc [8]: 1.163 and 1.8703 and 1.3349
- Ribociclib.Unbound.CSF [8]: 0.0799 and 0.2965
- Ribociclib.Unbound.enhancing [8]: 1.348 and 0.6511 and 0.2648
- Ribociclib.CSF [9]: 0.5436 and 0.0672 and 0.1419
- Ribociclib.Non-enhancing.tumor [9]: 17.8508 and 1.3144 and 1.5982
- Ribociclib.Plasma.conc [9]: 1.4899 and 0.302 and 1.3235
- Ribociclib.Unbound.CSF [9]: 0.1898 and 0.0709 and 0.0882
- Ribociclib.Unbound.enhancing [9]: 1.0559 and 0.5673 and 0.5436
- Kp at 120 h (CSF / plasma, oral, 400 mg): 0.25
- Kp uu at 120 h (CSF / plasma, oral, 400 mg): 1.15
- Kp at 120 h (CSF / plasma, oral, 600 mg): 0.22
- Kp uu at 120 h (CSF / plasma, oral, 600 mg): 0.84
- concentration at 5 days (CSF, oral, Total Ribociclib concentration, Maximum, 400 mg QD 5 days): 216 nM
- concentration at 5 days (CSF, oral, Total Ribociclib concentration, Median, 400 mg QD 5 days): 137 nM
- concentration at 5 days (CSF, oral, Unbound Ribociclib concentration, Maximum, 400 mg QD 5 days): 201 nM
- concentration at 5 days (CSF, oral, Unbound Ribociclib concentration, Maximum, 600 mg QD 5 days): 337 nM
- concentration at 5 days (CSF, oral, Unbound Ribociclib concentration, Median, 400 mg QD 5 days): 82 nM
- concentration at 5 days (CSF, oral, Unbound Ribociclib concentration, Median, 600 mg QD 5 days): 212 nM
- concentration at 5 days (CSF, oral, Unbound Ribociclib concentration, Minimum, 400 mg QD 5 days): 21 nM
- concentration at 5 days (CSF, oral, Unbound Ribociclib concentration, Minimum, 600 mg QD 5 days): 21 nM
- Kp at 120 h [10]: 12.9
- Kp uu at 120 h [10]: 5.1
- Kp at 120 h [11]: 14.1
- Kp uu at 120 h [11]: 5.67
- concentration at 5 days (enhancing tumor, oral, Total Ribociclib concentration, Maximum, 400 mg QD 5 days): 9900 nM
- concentration at 5 days (enhancing tumor, oral, Total Ribociclib concentration, Maximum, 600 mg QD 5 days): 49400 nM
- concentration at 5 days (enhancing tumor, oral, Total Ribociclib concentration, Median, 400 mg QD 5 days): 4060 nM
- concentration at 5 days (enhancing tumor, oral, Total Ribociclib concentration, Median, 600 mg QD 5 days): 14800 nM
- concentration at 5 days (enhancing tumor, oral, Total Ribociclib concentration, Minimum, 400 mg QD 5 days): 2330 nM
- concentration at 5 days (enhancing tumor, oral, Total Ribociclib concentration, Minimum, 600 mg QD 5 days): 753 nM
- concentration at 5 days (enhancing tumor, oral, Unbound Ribociclib concentration, Maximum, 400 mg QD 5 days): 1400 nM
- concentration at 5 days (enhancing tumor, oral, Unbound Ribociclib concentration, Maximum, 600 mg QD 5 days): 4500 nM
- concentration at 5 days (enhancing tumor, oral, Unbound Ribociclib concentration, Median, 400 mg QD 5 days): 375 nM
- concentration at 5 days (enhancing tumor, oral, Unbound Ribociclib concentration, Median, 600 mg QD 5 days): 1040 nM
- concentration at 5 days (enhancing tumor, oral, Unbound Ribociclib concentration, Minimum, 400 mg QD 5 days): 158 nM
- concentration at 5 days (enhancing tumor, oral, Unbound Ribociclib concentration, Minimum, 600 mg QD 5 days): 4.7 nM
- Kp at 120 h [12]: 8.35
- Kp uu at 120 h [12]: 3.19
- Kp at 120 h [13]: 8.8
- Kp uu at 120 h [13]: 3.78
- concentration at 5 days (non-enhancing tumor, oral, Total Ribociclib concentration, Maximum, 400 mg QD 5 days): 15000 nM
- concentration at 5 days (non-enhancing tumor, oral, Total Ribociclib concentration, Maximum, 600 mg QD 5 days): 41600 nM
- concentration at 5 days (non-enhancing tumor, oral, Total Ribociclib concentration, Median, 400 mg QD 5 days): 3130 nM
- concentration at 5 days (non-enhancing tumor, oral, Total Ribociclib concentration, Median, 600 mg QD 5 days): 11700 nM
- concentration at 5 days (non-enhancing tumor, oral, Total Ribociclib concentration, Minimum, 400 mg QD 5 days): 1370 nM
- concentration at 5 days (non-enhancing tumor, oral, Total Ribociclib concentration, Minimum, 600 mg QD 5 days): 1310 nM
- concentration at 5 days (non-enhancing tumor, oral, Unbound Ribociclib concentration, Maximum, 400 mg QD 5 days): 1770 nM
- concentration at 5 days (non-enhancing tumor, oral, Unbound Ribociclib concentration, Maximum, 600 mg QD 5 days): 2340 nM
- concentration at 5 days (non-enhancing tumor, oral, Unbound Ribociclib concentration, Median, 400 mg QD 5 days): 170 nM
- concentration at 5 days (non-enhancing tumor, oral, Unbound Ribociclib concentration, Median, 600 mg QD 5 days): 693 nM
- concentration at 5 days (non-enhancing tumor, oral, Unbound Ribociclib concentration, Minimum, 400 mg QD 5 days): 65 nM
- concentration at 5 days (non-enhancing tumor, oral, Unbound Ribociclib concentration, Minimum, 600 mg QD 5 days): 68 nM
- concentration at 5 days (non-enhancing tumor, po, unbound drug concentration in the non-enhancing tumor regions, range, ribociclib 400 mg daily oral, 5 days): 65 to 1770 nM
- concentration at 5 days (non-enhancing tumor, po, unbound drug concentration in the non-enhancing tumor regions, range, ribociclib 600 mg daily oral, 5 days): 68 to 2340 nM
SMILES: CN(C)C(=O)c1cc2cnc(Nc3ccc(N4CCNCC4)cn3)nc2n1C1CCCC1 [Ribociclib, ribociclib]
